Experimental data from patent publication US20250059267A1, “COMBINATION THERAPY FOR TREATMENT OF TUMORS COMPRISING CANCER-ASSOCIATED FIBROBLASTS” (PHENOMIC AI, priority 2021, published 2025).

Key:
Type in all cases: cell-based, human
[1] = system: fibroblasts grown in the presence of either HCT 116 cells or HT-29 cells; test: TGF-β pathway inhibitors in fibroblast-cancer cell co-cultures (CAF activation); settings: for block of CAF activation in coculture (FIG. 2B): BJ fibroblasts with HT-29 cells, TGF-β 1 ng/ml; for activity on CAF phenotypes in co-culture: identical doses to those used in the previous test
Description: (§1) FIG. 2 TGF-β inhibitors perform poorly in co-culture compared to mono-culture. (A) Normal BJ fibroblasts were cultured in either minimal media or alongside HT-29 CRC cancer cells. 6-different TGF-β inhibitors were added alongside TGF-β [1 ng/ml]ligand. […] (B) This is most apparent comparing the effects of three TGF-β inhibitors with varying selectivity.
(§2) In brief, monocultures of BJ or CCD18-Co fibroblasts were stimulated with TGF-β for 48 hours in the presence of serial dilutions of each TGF-β inhibitor and fibroblast activation was assessed by immunofluorescence using αSMA and CD248. The probability of fibroblast activation was assessed by a machine learning model, Multiple Instance Learning (MIL) trained on unstimulated fibroblasts (no drug, no TGF-β) as a negative control, and TGF-β stimulated fibroblasts (with vehicle control) as positive control. For co-culture comparisons, the same fibroblasts were grown in the presence of either HCT 116 cells or HT-29 cells and treated with the same serial dilutions of small molecule TGF-β. For these co-cultures, the addition of exogenous TGF-β is not required as the cancer cells secrete sufficient TGF-β for maximal fibroblast activation. […] This observation was confirmed by CellProfiler analysis where individual fibroblasts were segmented and αSMA and stress-fiber intensity was quantified (FIG. 2A).
We took an mAb inhibitor of TGFBR2, LY3022859, and assessed the performance of this inhibitor in co-culture alongside SIS3 and […], (FIG. 2 B). […] In contrast, both LY364947 and SIS3 were active at identical doses to those used in the previous test. Again, exogenous TGF-β was dispensable for this effect.

[2] = system: BJ or CCD18-Co fibroblasts; test: TGF-β pathway inhibitors in TGF-β stimulated fibroblast monocultures (αSMA/CD248 immunofluorescence, MIL model); settings: 48 hours
Description: as §1
We then tested the relative potency of a panel of TGF-β pathway inhibitors in monoculture fibroblasts stimulated with TGF-β compared to co-culture with CRC cells that produce their own, similar levels of TGF-β.
as §2, with “control.” for “control. For co-culture comparisons, the same fibroblasts were grown in the presence of either HCT 116 cells or HT-29 cells and treated with the same serial dilutions of small molecule TGF-β. For these co-cultures, the addition of exogenous TGF-β is not required as the cancer cells secrete sufficient TGF-β for maximal fibroblast activation.”

[3] = system: fibroblasts (BJ, CCD18-Co); test: Activin A, Activin B and TGF-β dose response for CAF induction in unstimulated fibroblasts; settings: for IC50 values, 1 hr vs. 48 hr timepoints: BJ or CCD18-Co fibroblast mono-cultures in minimal media (N=2); for phenotypic changes in fibroblasts (SMAD2/3, phospho-CREB, ASMA, Endosialin): BJ-fibroblasts; for EC50 values (fibroblast induction into a CAF like state, composite machine learning score): depending on condition tested, BJ, CCD18-Co, 1 hr and 48 hr; for ASMA score (intensity and number of ASMA filaments) vs. TGF-β treatment: highest dose, 48 hours
Description: FIG. 3 Activin and TGF-β both induce a CAF phenotype in fibroblast cell-lines. […] B) Quantification of ASMA levels and plate coverage further reinforce these changes downstream of addition of both Activin and TGF-β. C) TGF-β and Activin A were added over a range of doses to BJ or CCD18-Co colon fibroblasts grown as mono-cultures in minimal media (N=2). Cells were stained for Actin, Endosialin/CD248, DAPI/Nuclei, and αSMA. Machine Learning (Multiple Instance Learning) models were trained on the highest and lowest doses to generate dose-response curves.
To test whether Activin signaling could induce CAF activation similarly to TGF-β we added serial dilutions (3-fold) of recombinant Activin A ([…] max concentration) and Activin B ([…] max concentration) to unstimulated fibroblasts (BJ, CCD18-Co) to generate dose response curves for Activin A and B. A serial 3-fold dilution of TGF-β was also tested as a positive control ([…] max concentration). A number of high-content markers of CAF activation we used as endpoints. Namely, cells were probed for SMAD2/3 translocation to the nucleus and phospoCREB levels at 1 hr, as a marker of direct ACVR/TGFBR stimulation. ASMA and Endosialin levels were then probed at 48 hrs to quantify CAF induction levels following Activin and TGF-β stimulation. At the highest dose, at 1 hr we saw SMAD 2/3 nuclear translocation alongside phospho-CREB up-regulation, indicating receptor engagement and activity in both Activin and TGF-β treated conditions (FIG. 3A).

[4] = system: CCD-18Co normal colon fibroblasts; test: Cytokine stimulation of fibroblast monocultures, CAF marker immunofluorescence; settings: fibroblast monoculture serum-starved 24 hours, stimulated 48 hours, vs untreated fibroblasts
Description: A panel of 5 CAF markers were then used to stain the cultures and the expression levels of expression of the markers calculated from individual segmented fibroblasts.
First, we treated normal human fibroblasts with a panel of cytokines to induce activation, and then assessed CAF marker expression by immunofluorescence. Fibroblast monocultures were serum-starved for 24 hours then stimulated with TGF-β, TNF alpha, PDGFbb, acidic FGF or other cytokines for 48 hours. Cells were then fixed, permeabilized and stained with a panel of immunofluorescent CAF markers and imaged by high-content microscopy.

c1ccc(-c2[nH]ncc2-c2ccnc3ccccc23)nc1 [LY364947]
block of CAF activation in coculture (FIG. 2B) [1]: blocks CAF activation at high doses | activity on CAF phenotypes in co-culture [1]: active

Cc1cccc(-c2nn3c(c2-c2ccnc4ccc(C(N)=O)cc24)CCC3)n1 [LY2157299]
effectiveness in monoculture (inhibition of αSMA) [2]: effective | inhibition of αSMA in co-culture ([1]; even up to 100 μM): very little inhibition

COc1cc2c(cc1OC)CN(C(=O)/C=C/c1c(-c3ccccc3)n(C)c3ncccc13)CC2 [SIS3]
response in co-culture among the inhibitors tested (rightward shift of IC50) [1]: best response | reduction of αSMA levels in coculture ([1]; % of the control, conditions with >5% cell death excluded): more than 50% | block of CAF activation in coculture (FIG. 2B) [1]: able to block CAF activation | activity on CAF phenotypes in co-culture [1]: active

Activin A: recombinant Activin A
IC50 values, 1 hr vs. 48 hr timepoints [3]: lower at the 48 hr timepoint in CCD18 colon fibroblasts | phenotypic changes in fibroblasts (SMAD2/3, phospho-CREB, ASMA, Endosialin) [3]: induce similar phenotypic changes | EC50 values (fibroblast induction into a CAF like state, composite machine learning score) [3]: 10 to 30 µg/mL | ASMA score (intensity and number of ASMA filaments) vs. TGF-β treatment [3]: no difference

Activin B: recombinant Activin B
phenotypic changes in fibroblasts (SMAD2/3, phospho-CREB, ASMA, Endosialin) [3]: induce similar phenotypic changes | EC50 values (fibroblast induction into a CAF like state, composite machine learning score) [3]: 4 to 9 µg/mL | ASMA score (intensity and number of ASMA filaments) vs. TGF-β treatment [3]: no difference

TGF-β: TGF-β ligand added as cytokine stimulus and positive control
IC50 values, 1 hr vs. 48 hr timepoints [3]: lower for 1 hr timepoints vs. 48 hr timepoints | phenotypic changes in fibroblasts (SMAD2/3, phospho-CREB, ASMA, Endosialin) [3]: induce similar phenotypic changes | expression of alpha-smooth muscle actin (αSMA), podoplanin (PDPN) and CD248 [4]: increased expression
